# Assay results: patent US20230414626A1, “INDUCTION OF FERROPTOSIS FOR CANCER THERAPY” (Memorial Sloan Kettering Cancer Center, priority 2020, published 2023)
# Assays:
# MDA-MB-231 cells = assay: Cell death quantification, PI3K-AKT-mTOR wild-type cells; type: cell-based, human; details: MDA-MB-231, wild-type PI3K-AKT-mTOR pathway; RSL3 0.25 μM; Torin 1 μM; CCI-779 0.5 μM
# Method: (§1) FIG. 7 A-J. PI3K-AKT-mTOR signaling regulates ferroptosis sensitivity. (A) Cells were treated as indicated. GDC-0941, 2 μM; MK-2206, 2 μM; RSL3, 1 μM; Fer-1, 1 μM. Lipid peroxidation was measured. (B) Cells were treated with indicated conditions. Torin, 1 μM; RSL3, 1 μM for MDA-MB-453 cells and 0.5 μM for BT474 cells; Fer-1, 1 μM. Cell death was measured. (C) Cells were treated with indicated conditions. RSL3, 10 μM for MCF cells and PC-3 cells, 5 μM for T47D cells, 1 μM for HepG2 cells; Torin, 1 μM; CCI-779, 0.5 μM. (D) Cells were treated as indicated. CCI-779, 0.5 μM; Torin, 1 μM; Fer-1, 1 μM. Cell death was staining by propidium iodide (PI) (red) or Sytox Green (green) (scale bar, 100 μm). […] Cell death was measured. […]
# (§2) Cells were seeded in plates at appropriate cell density and incubated overnight at 37° C. containing 5% C02, and then subjected to treatments as described in individual experiments. […] Culture plates were read by Cytation 5 at indicated time points. Percentage of cell death was calculated as Sytox Green-positive cell number over total cell number. For 3D spheroids, cell viability was determined a commercially available cell viability assay (Promega, Madison, WI, USA) following the manufacturer's instructions. Viability was calculated by normalizing ATP levels of samples to that of negative controls (spheroids in normal full media without treatment).
# HT1080 cells = assay: as above; type: cell-based, human; details: HT1080, wild-type PI3K-AKT-mTOR pathway; RSL3 0.1 μM; Torin 1 μM; CCI-779 0.5 μM
# Method: as §1, §2
# mTORC1 activity = assay: Western blot of S6K phosphorylation (pT389 S6K); type: cell-based, human; details: RSL3 0.25 μM
# Method: FIG. 7 A-J. PI3K-AKT-mTOR signaling regulates ferroptosis sensitivity. (A) Cells were treated as indicated. GDC-0941, 2 μM; MK-2206, 2 μM; RSL3, 1 μM; Fer-1, 1 μM. Lipid peroxidation was measured. (B) Cells were treated with indicated conditions. Torin, 1 μM; RSL3, 1 μM for MDA-MB-453 cells and 0.5 μM for BT474 cells; Fer-1, 1 μM. Cell death was measured. (C) Cells were treated with indicated conditions. RSL3, 10 μM for MCF cells and PC-3 cells, 5 μM for T47D cells, 1 μM for HepG2 cells; Torin, 1 μM; CCI-779, 0.5 μM. (D) Cells were treated as indicated. CCI-779, 0.5 μM; Torin, 1 μM; Fer-1, 1 μM. Cell death was staining by propidium iodide (PI) (red) or Sytox Green (green) (scale bar, 100 μm). (E-F) 3D spheroids for MDA-MB-453 cells and MCF7 cells were treated as indicated. CCI-779, 0.5 μM; RSL3, 1 μM for MDA-MB-453 cells and 5 μM for MCF7 cells; Fer-1, 1 μM. Top panels, cell death staining (scale bar, 100 m). Bottom panels, cell viability. (G) MDA-MB-453 cells were treated as indicated for 24 h. RSL3, 1 μM; CCI-779, 0.5 μM; GDC-0941, 2 μM; MK-2206, 2 μM; Dabrafenib, 2 μM; SCH772984, 2 μM; Fer-1, 1 μM. (H) Western blot was performed to detect RPTOR and RICTOR knockdown efficiency. (I) HT1080 cells and MDA-MB-231 cells (both with wild-type PI3K-AKT-mTOR pathway) were treated as indicated. RSL3, 0.1 μM for HT1080 and 0.25 μM for MDA-MB-231; Torin, 1 μM; CCI-779, 0.5 μM; Fer-1, 1 μM. Cell death was measured. (J) Two lines of PI3K-AKT-mTOR pathway wild-type cells (HT1080 and MDA-MB-231) and two lines of cells harboring activating mutation of the pathway (BT474 and MDA-MB-453) were treated as indicated. RSL3, 0.25 μM; Fer-1, 1 μM. Western blot was performed to detect the level of pT389 S6K.
# Cell lysates were resolved on SDS-PAGE gels and transferred to a nitrocellulose membranes. The membranes were incubated in 5% skim milk for 1 hour at room temperature and then incubated with primary antibodies diluted in blocking buffer at 4° C. overnight. […]
# [1] = tested on: panel of human cancer cell lines with defined genetic mutations; assay: Sensitivity of cancer cell line panel to RSL3 (cell death, Sytox Green); type: cell-based; details: cancer cells carrying PIK3CA activating mutation or PTEN deletion; 24-h treatment
# Method: FIG. 1 A-D. Oncogenic activation of the PI3K-AKT-mTOR signaling pathway confers resistance to ferroptosis. (A) Genetic background of the analyzed cancer cell lines and their sensitivity to RSL3. (B) Cells were seeded in 96-well plate, 2×10^4 cells per well and incubated overnight. Cell death was induced by 24-h treatment of RSL3 with indicated concentrations. Cell death were measured by Sytox Green staining, as detailed in Methods. (C) Indicated protein components in the PI3K-AKT pathway were detected by western blot in indicated cell types. […] Cell death was measured. […]
# To investigate the functional interplay between ferroptosis and signaling pathways frequently mutated in cancer, we analyzed a panel of human cancer cell lines with defined genetic mutations. […]
# as §2, with “Viability was calculated by normalizing ATP levels of samples to that of negative controls (spheroids in normal full media without treatment).” left out
# MDA-MB-453 cells = assay: Cell death quantification (Sytox Green), RSL3-induced ferroptosis; type: cell-based, human; details: fatty acid 0.5 mM, RSL3 1 μM, CCI-779 0.5 μM
# Method: (§3) FIG. 1 A-D. Oncogenic activation of the PI3K-AKT-mTOR signaling pathway confers resistance to ferroptosis. (A) Genetic background of the analyzed cancer cell lines and their sensitivity to RSL3. (B) Cells were seeded in 96-well plate, 2×10^4 cells per well and incubated overnight. Cell death was induced by 24-h treatment of RSL3 with indicated concentrations. Cell death were measured by Sytox Green staining, as detailed in Methods. (C) Indicated protein components in the PI3K-AKT pathway were detected by western blot in indicated cell types. (D) Cells were treated with or without PI3K inhibitor GDC-0941 (2 μM), AKT inhibitor MK-2206 (2 μM), RSL3 (1 μM), or ferroptosis inhibitor Ferrostatin-1 (Fer-1, 1 μM) as indicated for 12 h (BT474) or 24 h (MDA-MB-453). Cell death was measured. Indicators for P values (same in all other figures): ****, P≤0.0001; *** P≤0.001; **, P≤0.01; *, P≤0.05; ns, P>0.05
# (§4) FIG. 2 A-E. mTORC1, instead of mTORC2, suppresses ferroptosis. (A) MDA-MB-453 and BT474 were treated with CCI-779 (0.5 μM), RSL3 (1 μM for MDA-MB-453 cells and 0.5 μM for BT474 cells), and Fer-1 (1 μM) as indicated. (B) Cells were seeded in 6-well plate, 4×10^5 cells per well and incubated overnight. MDA-MB-453 and BT474 cells were treated as indicated. CCI-779, 0.5 μM; RSL3, 1 μM for MDA-MB-453 cells and 0.5 μM for BT474 cells; Fer-1, 1 μM. Cells were stained with 5 μM C1I-BODIPY followed by flow cytometry after 8 h-treatment. (C) 3D spheroids were treated as indicated. CCI-779, 0.5 μM; RSL3, 0.5 μM; Fer-1, 1 μM. Top panel, dead cells were stained by SYTOX Green (scale bar, 100 μm). Bottom panel, cell viability was assayed by measuring cellular ATP levels. (D) Cells expressing shRNAs targeting RPTOR or RICTOR were treated as indicated. CCI-779, 0.5 μM; RSL3, 0.5 μM; Fer-1, 1 μM. (E) Lipid peroxidation of samples as in panel D were measured.
# (§5) FIG. 5 A-H. SREBP1 protects cells from ferroptosis through SCD1 activity. (A) The expression of SREBP1, and its targets SCD1, FASN, and ACACA, in control and SREBF1-sgRNA cells were detected by western blot. (B) The mRNA level of SREPF1 and its targets gene SCD were measured by RT-PCR. (C) Cells were pretreated with or without 5 μM CAY10566 overnight, and then subjected to the indicated treatments. RSL3, 0.5 μM for BT474 cells and 1 μM for MDA-MB-453 cells; CAY10566, 5 μM; Fer-1, 1 μM. (D) Cells expressing control or SCD-sgRNA were treated as indicated. RSL3, 1 μM for MDA-MB-453 cells and 0.5 μM for BT474 cells; Fer-1, 1 μM. (E) 3D spheroids derived from BT474 cells harboring control or SCD-sgRNA were treated as indicated. RSL3, 0.5 μM; CCI-779, 0.5 μM; Fer-1, 1 μM. Left, cell death staining (scale bar, 100 m). Right, cell viability. (F) SCD1 was overexpressed in BT474 cells and determined by western blot. Cells were treated as indicated. RSL3, 0.5 μM; CCI-779, 0.5 μM. (G) 3D spheroids derived from BT474 cells with control or SCD1 overexpression were treated as indicated. RSL3, 0.5 μM; CCI-779, 0.5 μM; Fer-1, 1 μM. Left, cell death staining (scale bar, 100 m). Right, cell viability. (H) Cells were treated as indicated. RSL3, 0.5 μM for BT474 and 1 μM for MDA-MB-453; CCI-779, 0.5 μM; Oleic acid (OA), 0.5 mM; stearic acid (SA), 0.5 mM.
# (§6) FIG. 7 A-J. PI3K-AKT-mTOR signaling regulates ferroptosis sensitivity. (A) Cells were treated as indicated. GDC-0941, 2 μM; MK-2206, 2 μM; RSL3, 1 μM; Fer-1, 1 μM. Lipid peroxidation was measured. (B) Cells were treated with indicated conditions. Torin, 1 μM; RSL3, 1 μM for MDA-MB-453 cells and 0.5 μM for BT474 cells; Fer-1, 1 μM. Cell death was measured. (C) Cells were treated with indicated conditions. RSL3, 10 μM for MCF cells and PC-3 cells, 5 μM for T47D cells, 1 μM for HepG2 cells; Torin, 1 μM; CCI-779, 0.5 μM. (D) Cells were treated as indicated. CCI-779, 0.5 μM; Torin, 1 μM; Fer-1, 1 μM. Cell death was staining by propidium iodide (PI) (red) or Sytox Green (green) (scale bar, 100 μm). (E-F) 3D spheroids for MDA-MB-453 cells and MCF7 cells were treated as indicated. […]
# BT474 cells = assay: as above; type: cell-based, human; details: fatty acid 0.5 mM, RSL3 0.5 μM, CCI-779 0.5 μM
# Method: as §3, §4, §5, §6
# [2] = wild-type cells (HT1080 and MDA-MB-231), Fer-1 1 μM
smiles,measurement,setting,value
COC(=O)c1ccc([C@@H]2c3[nH]c4ccccc4c3C[C@@H](C(=O)OC)N2C(=O)CCl)cc1 [RSL3],ferroptosis induction (cell death),MDA-MB-231 cells,sufficient to induce ferroptosis
same,ferroptosis induction (cell death),HT1080 cells,sufficient to induce ferroptosis
same,mTORC1 activity as measured by S6K phosphorylation,mTORC1 activity; cells harboring pathway mutation (BT474 and MDA-MB-453),retained active mTORC1
same,mTORC1 activity as measured by S6K phosphorylation,mTORC1 activity; [2],inhibited
same,sensitivity to ferroptosis induction by RSL3,[1],more resistant
CCOC(=O)c1ccc(NC2CCCCC2)c(N)c1 [ferrostatin-1],mTORC1 activity as measured by S6K phosphorylation,mTORC1 activity; [2],prevented RSL3-triggered inactivation of mTORC1 activity
CCCCCCCC/C=C\CCCCCCCC(=O)O [oleate acid],ferroptosis resistance upon treatment of CCI-779 plus RSL3 (fatty acid supplementation),MDA-MB-453 cells,resulted in ferroptosis resistance
same,ferroptosis resistance upon treatment of CCI-779 plus RSL3 (fatty acid supplementation),BT474 cells,resulted in ferroptosis resistance
CCCCCC/C=C\CCCCCCCC(=O)O [palmitoleic acid],ferroptosis resistance upon treatment of CCI-779 plus RSL3 (fatty acid supplementation),MDA-MB-453 cells,resulted in ferroptosis resistance
same,ferroptosis resistance upon treatment of CCI-779 plus RSL3 (fatty acid supplementation),BT474 cells,resulted in ferroptosis resistance
